{"source": "patent US11661439B2", "about": "“Peptide hydrogels and use thereof” (The United States of America, as represented by the …, priority 2017, dated 2023)", "key": {"[1]": {"tested_on": "human dermal fibroblasts (HDFs)", "assay": "3D cell encapsulation culture of HDFs in gels", "type": "cell-based", "method": "3D cell culture in peptide gels. Peptides were initially dissolved in 285 mM sucrose at 1 wt % on ice and mixed with an equal volume of cell suspension in serum-free HEPES-supplemented DMEM (2×10^6 cells mL^−1). The cell-peptide suspension (5×10^4 cells per 50 μL per insert) was transferred to a Falcon cell culture insert (for 24-well plates, 8 μm pore size, Corning) and incubated at 37° C. for 30 min for gelation. These inserts were previously coated with the empty hydrogel (30 μL per insert) to avoid cell adhesion to the bottom surface of the inserts. After gelation of cell-peptide solution, 500 μL of Essential 8 Medium were added to the top and bottom of the gels. Type I collagen gels were prepared following manufacturer's instructions. Briefly, a 0.4 wt % collagen solution was prepared on ice and mixed with cell suspension in serum-free DMEM (4×10^6 cells mL^−1) at a ratio of 3:1 (0.3 wt % collagen, 1×10^6 cells mL^−1).\nCell viability assay. Cell viability was evaluated by live and dead cell staining after 2D and 3D cell culture. Serum-free DMEM containing 1 μM calcein-AM and 2 μM ethidium homodimer-1 was added to the cells (200 μL per well for 2D culture and 500 μL each to the top and bottom of the gels for 3D culture). After incubation at 37° C. for 30 min, live and dead cells were visualized using EVOS FL Auto Cell Imaging System (Thermo Fisher Scientific). For the pseudo-colored composite image of varying heights of encapsulated cells, images of the live-stained cells were captured every 5 μm of height. Then Z-stack images for each 100 μm were flattened using the EVOS software, and the flattened images were pseudo-colored and merged using ImageJ.\nCell proliferation assay. A cell proliferation assay was performed using Cell Counting Kit-8 (CCK-8, Dojindo Molecular Technologies) for 2D and 3D cell culture. […] Subsequently, media were transferred to 96-well plates (150 μL per well) and their absorbance measured at 450 nm relative to control viabilities from day 0 for 2D cell culture and day 1 for 3D cell culture. […]"}, "[2]": {"assay": "Rheology of cell-encapsulating gels after 4 days of 3D culture", "type": "physicochemical", "conditions": "1000% strain for 30 s every 10 min", "source_text": "FIGS. 7A-7E. Three-dimensional culturing of HDFs. HDFs were 3D cultured with 0.5 wt % peptide hydrogels or 0.3 wt % collagen hydrogels with Essential 8 Medium. (7A) Live and dead cells were visualized on days 1, 4, and 7, using calcein AM and ethidium homodimer-1 staining, respectively (scale bar=100 μm). (7B) Cell growth was monitored by quantifying cell viability on days 1, 4, and 7. Data are represented as mean±SD of three independent replicates. (7C) A pseudo-colored composite of varying depths (0-500 μm) of Z-stacked images of live cells stained with calcein AM in 0.5% AcVES3-RGDV hydrogels on day 4 (scale bar=100 μm). […] (7D) Z-stack image of cytoskeleton organization in the hydrogels on day 4 with actin and nuclei (scale bar=100 μm) stained. (7E) Shear-thinned recovery of cells encapsulated in 0.5 wt % AcVES3-RGDV hydrogel after 3D culturing for 4 days. Hydrogels were shear-thinned at 1000% strain for 30 s (indicated by dashed line) every 10 min and allowed to recover by reducing the strain to 0.2%.\nRheology measurements of cell-encapsulating gels after 4 days of 3D cell culturing were performed using 8-mm stainless steel parallel plate geometry with a 0.5 mm gap height. A cell-encapsulating gel (100 μL) in a transwell insert (for 24 well plates, Corning) was transferred to the rheometer plate previously equilibrated at 37° C. and oil was placed around the sample. […]"}}, "note": "Non-standard residues stand in square brackets, D forms with d. Residues, ends and D or L forms follow the SMILES beside them."}
{"smiles": "CC(=O)N[C@H](C(=O)N[C@@H](CCC(=O)O)C(=O)N[C@H](C(=O)N[C@@H](CO)C(=O)N[C@H](C(=O)N[C@@H](CO)C(=O)N[C@H](C(=O)N[C@@H](CCC(=O)O)C(=O)N[C@H](C(=O)N1CCC[C@@H]1C(=O)N1CCC[C@H]1C(=O)N[C@H](C(=O)N[C@@H](CCC(=O)O)C(=O)N[C@H](C(=O)N[C@@H](CO)C(=O)N[C@H](C(=O)N[C@@H](CCC(=O)O)C(=O)N[C@H](C(=O)N[C@@H](CCC(=O)O)C(=O)N[C@H](C(=O)NCC(=O)NCC(=O)NCC(=O)NCC(=O)N[C@@H](CCCNC(=N)N)C(=O)NCC(=O)N[C@@H](CC(=O)O)C(=O)N[C@H](C(N)=O)C(C)C)C(C)C)C(C)C)C(C)C)C(C)C)[C@@H](C)O)C(C)C)C(C)C)C(C)C)C(C)C)C(C)C", "note": "[AcVES3-RGDV] (Ac-VEVSVSVEV[dP]PTEVSVEVEVGGGGRGDV-NH2)", "values": [{"measurement": "cell proliferation rate relative to the collagen gel", "setting": "[1]; 3D culture, Essential 8 Medium", "result": "2-3 fold"}, {"measurement": "cell proliferation of encapsulated HDFs, 3D culture", "setting": "[1]; Essential 8 Medium, one week", "result": "proliferated well with minimal cell death"}, {"measurement": "distribution of encapsulated cells in the gel", "setting": "[1]; day 4, heights 0-500 μm", "result": "homogenously distributed throughout the gel matrix"}, {"measurement": "storage moduli after multiple physical disruptions", "setting": "[2]", "result": "constant"}]}
